From patent US20110268812A1, “Cosmetic or dermatological composition comprising the combination of honey and a peptide” (LVMH RECHERCHE, priority 2010, published 2011)
Ends that are not written are not given here. * marks the point of attachment. Palmitoyl = CCCCCCCCCCCCCCCC(=O)*

System: normal human fibroblasts (NHFs)
Assay: In vitro healing test: recolonization of the damaged zone by fibroblasts (IBIDI culture inserts)
Assay type: cell-based
Settings: 16 h treatment in DMEM alone, final concentrations: clover honey 100 μg/mL, Pal-VGVAPG solution 1%, change vs nontreated control (NT)
Procedure: This experiment is based on a model of biocompatible cell culture inserts allowing quantitative and perfectly reproducible measurement of the phenomena of healing in vitro.
The cells used in this study are normal human fibroblasts (NHFs).
The cells are seeded in 175 cm^2 flasks at a density of 1 million per flask in DMEM (Dulbecco's Modified Eagle's Medium) culture medium supplemented with 10% of foetal calf serum and 1.3 mM L-glutamine. Having reached confluence, the cells are trypsinized and re-seeded for the healing test.
Before seeding of the cells, inserts sold in the form of kits under the name Culture-Insert (ref. 80209) by the company IBIDI (Germany) are placed at the bottom of six wells of a plate. […]
The cells are maintained in culture for 16 h (optimum measurement time determined previously), in an incubator at 37° C. and in an atmosphere containing 5% CO2. […]
Images are immediately taken on a Nikon TE2000 video microscope in blue fluorescence (cell nuclei) and red fluorescence (actin filaments), at a rate of 2 photos per well at the damaged zone.
Image analysis is used to visualize and quantify the colonization by fibroblasts of the artificially “damaged” zone after removal of the insert. […]
The number of cells that have recolonized the damaged zone, per unit area (cm^2), is calculated. […]

## palmitoyl-Val-Gly-Val-Ala-Pro-Gly (Palmitoyl-VGVAPG) [Pal-VGVAPG, sold in the form of an aqueous-glycolic solution under the trade name Biopeptide EL by the company Sederma]
  recolonization of the damaged zone (number of cells having recolonized per cm^2) compared with the nontreated control: +150%
